# Data taken from patent publication US12384777B2 (Tay Therapeutics Limited, priority 2019, dated 2025).
# Like-named read-outs stand apart in the source and are kept apart here.
# Experiments:
# human liver hepatocytes = experiment: Intrinsic clearance in human liver hepatocytes; type: in vitro ADME; conditions: human cryopreserved hepatocytes, 0.5 μM test compound
# In short: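 Cryopreserved human hepatocytes in supplemented Williams Medium E were incubated at 37 °C, 5% CO2, with 0.5 μM compound at 0.25 million cells/mL final. Aliquots taken up to 120 min were quenched into acetonitrile and analysed by UPLC-MS/MS. Clearance came from an exponential decay fit of compound-to-internal-standard ratio over time.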
# BRD4 BD1 = BRD4 BD1 (Homo sapiens (Human), UniProt O60885); experiment: Bromodomain binding assay (T7 phage display, qPCR), BRD4 BD1; conditions: for Kd: read-out: BRD4 BD1 Kd
# [1] = system: primary keratinocytes stimulated by polyinosinic:polycytidylic acid; experiment: Cellular activity broad panel: reduction of cytokine/chemokine levels in stimulated primary keratinocytes; type: cell-based; conditions: Homo sapiens, Keratinocyte
# Method: • 1. Seed Primary Human Keratinocytes cells (PHK) at 9000 cells/well in a flat bottom 96 well plate. • 2. […] Cells are cultured for 24 hr prior to TLR ligand stimulation (polyinosinic:polycytidylic acid). • 4. Cells are treated with 20 μg/mL polyinosinic:polycytidylic acid for 48 hrs in 180 μL of media and treated for different compounds or controls. • 5. Supernatant is collected and Chemokine and Cytokines analysis is performed by Magpix-Luminex. Immunoassay Procedure Day 1 • 1. Add 200 μL of Assay Buffer per well. Shake 10 min, RT. Decant. • 2. Add 25 μL of Standard or Control to the appropriate wells. • 3. Add 25 μL of Assay Buffer to background and sample wells. • 4. Add 25 μL of cell media to background, standard and control wells. • 5. Add 25 μL neat samples to sample wells. • 6. Add 25 μL of Beads to each well. • 7. Incubate overnight (16-18 hr) at 4° C. Day 2 • 8. Remove well contents and wash 2× with 200 μL Wash buffer. • 9. Add 25 μL of Detection Antibodies per well. • 10. Incubate 1 hr at RT (20-25° C.). • 11. […] Incubate for 30 min at RT. • 13. Remove well contents and wash 2× with 200 μL Wash buffer. • 14. Add 150 μL of Wash Buffer per well. Resuspend the beads on a plate shaker for 5 min. • 15. Read on Luminex 100 μl (50 beads per bead set).
# BRD4 BD2 = BRD4 BD2 (Homo sapiens (Human), UniProt O60885); experiment: Bromodomain binding assay (T7 phage display, qPCR), BRD4 BD2; conditions: for Kd: read-out: BRD4 BD2 Kd
# Method: T7 phage strains displaying bromodomains were grown in parallel in 24-well blocks in an E. coli host derived from the BL21 strain. E. coli were grown to log-phase and infected with T7 phage from a frozen stock (multiplicity of infection=0.4) and incubated with shaking at 32° C. until lysis (90-150 min). The lysates were centrifuged (5,000×g) and filtered (0.2 μm) to remove cell debris. Streptavidin-coated magnetic beads were treated with biotinylated small molecule or acetylated peptide ligands for 30 min at RT to generate affinity resins for bromodomain assays. The ligated beads were blocked with excess biotin and washed with blocking buffer (SeaBlock (Pierce), 1% BSA, 0.05% Tween 20, 1 mM DTT) to remove unbound ligand and to reduce non-specific phage binding. Binding reactions were assembled by combining bromodomains, ligated affinity beads, and test compounds in 1× binding buffer (16% SeaBlock, 0.32×PBS, 0.02% BSA, 0.04% Tween 20, 0.004% Sodium azide, 7.9 mM DTT). Test compounds were prepared as 1000× stocks in 100% DMSO and subsequently diluted 1:25 in MEG. The compounds were then diluted directly into the assays such that the final concentrations of DMSO and MEG were 0.1% and 2.4%, respectively. All reactions were performed in polypropylene 384-well plates in a final volume of 0.02 ml. The assay plates were incubated at RT with shaking for 1 hr and the affinity beads were washed with wash buffer (1×PBS, 0.05% Tween 20). The beads were then re-suspended in elution buffer (1×PBS, 0.05% Tween 20, 2 μM non-biotinylated affinity ligand) and incubated at RT with shaking for 30 min. The bromodomain concentration in the eluates was measured by quantitative polymerase chain reaction (qPCR).
# An 11-point 3-fold serial dilution of each test compound was prepared in 100% DMSO at 1000× final test concentration. All compounds were distributed by acoustic transfer (non-contact dispensing) in 100% DMSO. The compounds were then diluted directly into the assays such that the final concentration of DMSO was 0.09%. Most dissociation constants were determined using a compound top concentration=10,000 nM. If the initial dissociation constant determined was <0.169 nM (the lowest concentration tested), the measurement was repeated with a serial dilution starting at a lower top concentration.
# The same bromodomain assay procedure as that outlined above was used. Example compounds were screened at 30 times their Kd, and results for primary screen binding interactions are reported as ‘% Ctrl’, where lower numbers indicate stronger hits in the matrix.
# [2] = system: CD4+ T-cells stimulated by CD2, CD3 and CD28 antibodies; experiment: Cellular activity IL-4: reduction of IL-4 levels in activated CD4+ T-cells; type: cell-based, human; conditions: Homo sapiens, T-cell
# Method: • 1. CD4^+ T-cells are isolated from cryopreserved human peripheral blood mononuclear cells (PBMCs) using EasySep™ Kit (Cat. No. 17952, Stemcell Technologies). • 2. CD2, CD3 and CD28 antibodies coated beads from T cell Activation/Expansion Kit (Cat. No. 130-091-441, Miltenyi Biotec) are added to the CD4^+ T-cells at a bead-to-cell ratio of 1:2. • 3. CD4^+ T-cells along with the beads are seeded at 2×10^5 cells/well in a round bottom 96-well plate and treated with different compounds and controls in a total volume of 200 μl. • 4. The cells are cultured for 48 hrs at 37° C., 5% CO2. • 5. Supernatant is collected and IL-4 is analysed by ELISA.
# [3] = single point, screened at 30 times Kd, lower numbers indicate stronger hits
# [4] = disease relevant markers, read-out: cellular EC50 values in stimulated human primary keratinocytes
# [5] = poly I:C 20 μg/mL, 48 hrs, read-out: EC50 reduction of CCL2
# [6] = poly I:C 20 μg/mL, 48 hrs, read-out: EC50 reduction of CCL20
# [7] = poly I:C 20 μg/mL, 48 hrs, read-out: EC50 reduction of CCL27
# [8] = poly I:C 20 μg/mL, 48 hrs, read-out: EC50 reduction of CXCL9
# [9] = poly I:C 20 μg/mL, 48 hrs, read-out: EC50 reduction of GM-CSF
# [10] = poly I:C 20 μg/mL, 48 hrs, read-out: EC50 reduction of IL-1a
# [11] = poly I:C 20 μg/mL, 48 hrs, read-out: EC50 reduction of IL-6
# [12] = poly I:C 20 μg/mL, 48 hrs, read-out: EC50 reduction of IL-8
# [13] = poly I:C 20 μg/mL, 48 hrs, read-out: EC50 reduction of TNF-a
# [14] = poly I:C 20 μg/mL, 48 hrs, read-out: EC50 reduction of TSLP
# [15] = 48 hrs, ELISA, read-out: EC50 reduction of IL-4 levels
# [16] = read-out: cellular EC50 values, reduction of IL-4 levels
"Intrinsic clearance, % Liver Blood Flow (human liver hepatocytes)",Kd (BRD4 BD1),BRD4(1) % Ctrl (BRD4 BD1; [3]),"EC50 [1, 4]","EC50 [1, 5]","EC50 [1, 6]","EC50 [1, 7]","EC50 [1, 8]","EC50 [1, 9]","EC50 [1, 10]","EC50 [1, 11]","EC50 [1, 12]","EC50 [1, 13]","EC50 [1, 14]",Kd (BRD4 BD2),BRD4(2) % Ctrl (BRD4 BD2; [3]),"EC50 [2, 15]","EC50 [2, 16]",Structure (SMILES)
83 % Liver Blood Flow,≤ 0.01 µM,0 % Ctrl,< 0.1 µM,0.01 to 0.1 µM,0.01 to 0.1 µM,0.01 to 0.1 µM,≤ 0.01 µM,≤ 0.01 µM,≤ 0.01 µM,0.01 to 0.1 µM,≤ 0.01 µM,≤ 0.01 µM,0.01 to 0.1 µM,≤ 0.01 µM,2.6 % Ctrl,≤ 0.01 µM,< 0.1 µM,"Cn1cc(-c2cccc(O)c2Oc2ccccc2)c2cc[nH]c2c1=O [Example 1, 4-(3-hydroxy-2-phenoxyphenyl)-6-methyl-1,6-dihydro-7H-pyrrolo[2,3-c]pyridin-7-one]"
86 % Liver Blood Flow,0.01 to 0.1 µM,,< 0.1 µM,≤ 0.01 µM,≤ 0.01 µM,0.01 to 0.1 µM,≤ 0.01 µM,≤ 0.01 µM,≤ 0.01 µM,0.01 to 0.1 µM,≤ 0.01 µM,≤ 0.01 µM,≤ 0.01 µM,≤ 0.01 µM,,0.01 to 0.1 µM,< 0.1 µM,"Cn1cc(-c2c(O)cccc2Oc2ccccc2)c2cc[nH]c2c1=O [Example 3, 4-(2-hydroxy-6-phenoxyphenyl)-6-methyl-1,6-dihydro-7H-pyrrolo[2,3-c]pyridin-7-one]"
